Laboratory results from ChEMBL document CHEMBL3352388, “Active compounds from a diverse library of triazolothiadiazole and triazolothiadiazine scaffolds: synthesis, crystal structure determination, cytotoxicity, cholinesterase inhibitory activity, and binding mode analysis” (Bioorg Med Chem, 2014).

Key:
Vero = experiment: Cytotoxicity against African green monkey Vero cells by sulforhodamine B assay; assay type: cell-based; design: concentration or dose not given beside the values; conditions: chlorocebus sabaeus
Cholinesterase [1] = target: T1, Cholinesterase (Homo sapiens, UniProt P06276); experiment: Inhibition of human BChE by Ellman's method
T1 sequence (P06276 whole entry): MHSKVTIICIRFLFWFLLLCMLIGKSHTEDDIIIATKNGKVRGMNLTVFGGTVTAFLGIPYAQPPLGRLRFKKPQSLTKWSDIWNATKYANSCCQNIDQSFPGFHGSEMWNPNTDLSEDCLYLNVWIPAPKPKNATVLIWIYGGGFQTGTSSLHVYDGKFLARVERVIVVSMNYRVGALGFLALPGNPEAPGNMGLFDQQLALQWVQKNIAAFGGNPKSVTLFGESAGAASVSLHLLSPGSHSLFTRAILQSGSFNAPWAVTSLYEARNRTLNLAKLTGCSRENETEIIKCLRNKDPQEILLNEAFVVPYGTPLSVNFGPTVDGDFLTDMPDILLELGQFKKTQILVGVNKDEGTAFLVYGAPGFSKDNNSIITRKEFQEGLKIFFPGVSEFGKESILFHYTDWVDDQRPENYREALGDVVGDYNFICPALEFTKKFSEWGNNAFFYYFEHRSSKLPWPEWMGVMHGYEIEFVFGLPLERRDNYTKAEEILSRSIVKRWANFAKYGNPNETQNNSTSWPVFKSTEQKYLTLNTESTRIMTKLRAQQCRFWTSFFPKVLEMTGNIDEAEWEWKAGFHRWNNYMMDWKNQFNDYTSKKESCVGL

NCI-H157 = experiment: Cytotoxicity against human NCI-H157 cells by sulforhodamine B assay; assay type: functional, cell-based
Acetylcholinesterase = Acetylcholinesterase (Electrophorus electricus, UniProt O42275); experiment: Inhibition of electric eel AChE by Ellman's method
Sequence of Acetylcholinesterase (O42275 whole entry): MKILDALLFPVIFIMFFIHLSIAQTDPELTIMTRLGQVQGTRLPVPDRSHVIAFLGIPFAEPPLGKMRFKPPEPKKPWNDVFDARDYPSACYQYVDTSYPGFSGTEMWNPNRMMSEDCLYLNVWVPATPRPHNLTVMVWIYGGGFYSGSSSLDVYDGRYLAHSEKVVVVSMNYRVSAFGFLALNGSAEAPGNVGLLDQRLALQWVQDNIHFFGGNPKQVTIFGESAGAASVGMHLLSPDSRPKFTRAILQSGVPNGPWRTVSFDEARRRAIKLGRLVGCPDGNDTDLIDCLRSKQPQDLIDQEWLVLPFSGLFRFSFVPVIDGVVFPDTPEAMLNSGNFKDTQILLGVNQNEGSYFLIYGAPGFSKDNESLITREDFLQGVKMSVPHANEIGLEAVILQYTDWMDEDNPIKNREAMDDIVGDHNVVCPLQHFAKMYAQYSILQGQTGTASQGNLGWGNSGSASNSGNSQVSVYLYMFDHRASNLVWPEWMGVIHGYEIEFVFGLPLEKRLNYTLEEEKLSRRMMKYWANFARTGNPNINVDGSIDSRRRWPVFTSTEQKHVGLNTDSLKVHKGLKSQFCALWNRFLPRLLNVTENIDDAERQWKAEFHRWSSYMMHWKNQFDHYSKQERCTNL

[2] = target: Acetylcholinesterase (Electrophorus electricus) (UniProt O42275); experiment: Inhibition of electric eel AChE at 100 uM by Ellman's method
Sequence of Acetylcholinesterase (Electrophorus electricus) (O42275 24-633 limits assumed): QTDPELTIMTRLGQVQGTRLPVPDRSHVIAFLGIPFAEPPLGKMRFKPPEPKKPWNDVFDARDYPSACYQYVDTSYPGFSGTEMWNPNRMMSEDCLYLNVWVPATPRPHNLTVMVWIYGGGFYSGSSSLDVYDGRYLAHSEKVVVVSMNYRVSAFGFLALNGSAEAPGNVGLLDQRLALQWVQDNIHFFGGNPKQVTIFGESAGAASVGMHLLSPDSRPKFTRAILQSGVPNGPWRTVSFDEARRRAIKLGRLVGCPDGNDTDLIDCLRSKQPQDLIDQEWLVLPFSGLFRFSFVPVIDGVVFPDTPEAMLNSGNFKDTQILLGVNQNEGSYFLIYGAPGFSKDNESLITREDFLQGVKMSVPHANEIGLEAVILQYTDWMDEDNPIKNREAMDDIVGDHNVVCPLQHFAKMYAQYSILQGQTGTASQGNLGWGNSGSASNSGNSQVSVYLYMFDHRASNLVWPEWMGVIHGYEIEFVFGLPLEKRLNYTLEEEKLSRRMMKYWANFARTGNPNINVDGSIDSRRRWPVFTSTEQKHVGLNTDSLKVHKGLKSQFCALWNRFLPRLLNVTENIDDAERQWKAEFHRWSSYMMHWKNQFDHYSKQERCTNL

Cholinesterase [3] = target: T1, Cholinesterase; experiment: Ratio of neostigmine IC50 to compound IC50 for human BChE

Row | SMILES | Activity (Vero) | IC50 (Cholinesterase [1]) | IC50 (NCI-H157) | IC50 (Acetylcholinesterase) | inhibition [2] | Ratio IC50 (Cholinesterase [3])
1 | c1ccc(-c2ccc(C3=Nn4c(nnc4-c4cccnc4)SC3)cc2)cc1 | 26.1% | 18.9 µM | 4.32 µM | 39.7 µM | – | –
2 | Fc1ccc(OCc2nn3c(-c4cccnc4)nnc3s2)cc1 | 17.4% | – | 1.94 µM | – | – | –
3 | Cc1occc1-c1nn2c(-c3cccnc3)nnc2s1 | 24.3% | 58.6 µM | 2.93 µM | 37.7 µM | – | –
4 | Oc1ccccc1OCc1nn2c(-c3cccnc3)nnc2s1 | 22.7% | 3.02 µM | 3.67 µM | 35.5 µM | – | –
5 | CC[C@]1(O)C[C@H]2CN(CCc3c([nH]c4ccccc34)[C@@](C(=O)OC)(c3cc4c(cc3OC)N(C=O)[C@H]3[C@@](O)(C(=O)OC)[C@H](OC(C)=O)[C@]5(CC)C=CCN6CC[C@]43[C@@H]65)C2)C1 [VINCRISTINE] | 16.81% | – | 1.03 µM | – | – | –
6 | Fc1ccc(Cc2nn3c(-c4cccnc4)nnc3s2)cc1 | 21.3% | 79.9 µM | 1.65 µM | – | 32.3% | –
7 | COc1ccc(OCc2nn3c(-c4cccnc4)nnc3s2)cc1 | 24.1% | 55.8 µM | 1.95 µM | – | 39.5% | –
8 | c1cncc(-c2nnc3sc(-c4ccc[nH]4)nn23)c1 | 19.2% | 13.7 µM | 5.14 µM | 13.7 µM | – | –
9 | Fc1ccc(-c2nn3c(-c4cccnc4)nnc3s2)cc1Cl | 23.6% | 10.3 µM | 1.08 µM | – | 48.4% | –
10 | Cc1ccc(OCc2nn3c(-c4cccnc4)nnc3s2)cc1 | 23.8% | 4.76 µM | 2.98 µM | 11.3 µM | – | –
11 | c1cncc(-c2nnc3n2N=C(c2cccc4ccccc24)CS3)c1 | 23.1% | 15.9 µM | 5.37 µM | – | 17.2% | –
12 | CCOc1ccc(Cc2nn3c(-c4cccnc4)nnc3s2)cc1 | 22.5% | 70.7 µM | 2.92 µM | – | 38.4% | –
13 | c1cncc(-c2nnc3sc(-c4ccco4)nn23)c1 | 23.9% | 6.03 µM | 3.16 µM | 21.2 µM | – | –
14 | O=[N+]([O-])c1ccc(C2=Nn3c(nnc3-c3cccnc3)SC2)cc1 | 10.7% | 1.09 µM | 1.42 µM | 18.3 µM | – | 15
15 | CN(C)C(=O)Oc1cccc([N+](C)(C)C)c1 [NEOSTIGMINE] | – | 16.3 µM | – | – | – | –
16 | Clc1ccc(C2=Nn3c(nnc3-c3cccnc3)SC2)cc1 | 21.1% | 9.82 µM | 3.94 µM | 15.1 µM | – | –
17 | Fc1ccc(C2=Nn3c(nnc3-c3cccnc3)SC2)cc1 | 18.4% | 4.92 µM | 1.85 µM | – | 40.8% | –
18 | Fc1cc(Cl)ccc1-c1nn2c(-c3cccnc3)nnc2s1 | 26.7% | 37.4 µM | 1.87 µM | – | 36.2% | –
19 | Cc1ccccc1OCc1nn2c(-c3cccnc3)nnc2s1 | 20.9% | – | 3.29 µM | – | – | –
20 | Clc1ccc(C2=Nn3c(nnc3-c3cccnc3)SC2)cc1Cl | 22.2% | 64.8 µM | 0.96 µM | 38.5 µM | – | –
21 | Cc1ccc(C2=Nn3c(nnc3-c3cccnc3)SC2)cc1 | 27.3% | 25.4 µM | 3.87 µM | – | 28.7% | –
22 | Oc1ccc(OCc2nn3c(-c4cccnc4)nnc3s2)cc1 | 20.4% | 0.585 µM | 3.01 µM | 3.09 µM | – | –
23 | COc1ccc(C2=Nn3c(nnc3-c3cccnc3)SC2)cc1 | 27.8% | 0.781 µM | 1.67 µM | – | 15.2% | 23
24 | c1cncc(-c2nnc3sc(-c4ccoc4)nn23)c1 | 28.4% | – | 3.41 µM | – | – | –
